Reference: article PMC6863598, “Binding of Monovalent and Bivalent Ligands by Transthyretin Causes Different Short- and Long-Distance Conformational Changes” (Journal of Medicinal Chemistry, 2019)
One block for each compound: values may come before it.

Experiments:
[1] = molecular target: T1, TTR HBP (Homo sapiens, UniProt P02766); assay: NMR observation of ligand binding to the recombinant TTR halogen binding pocket; details: DSS added for reference purposes, Figure S4
T1 construct: hexahistidine (TEV-cleavable) (cleaved yes); made in house; host or cells: E. coli BL21 Star (DE3), peTM11 plasmid
Protocol: NMR spectra were acquired at 310 K with a Bruker AVANCE 700 and 800 MHz NMR spectrometer on a U-^2H, ^13C, ^15N-labeled recombinant TTR samples at concentrations of 50–90 μM in PBS buffer at pH 7.0 and 7.4 in a mixture H2O/D2O 90/10%.
The addition of 4,4-dimethyl-4-silapentane-1-sulfonic acid (DSS) for reference purposes led to the observation that DSS binds to the TTR HBP (see Figure S4).

[2] = tested on: TTR; details: simultaneous occupancy of the two binding sites; cited from earlier work
[3] = tested on: TTR; set-up: method as in PMID 28298647; details: cited from earlier work
[4] = molecular target: TTR (human wild type TTR isolated from serum) (Homo sapiens, UniProt P02766); assay: Surface plasmon resonance (Biacore T200) of tafamidis binding to immobilised biotinylated TTR; details: for k2 (off-rate, first binding site) / k4 (off-rate, second binding site): dissociation data fitted to a double exponential
Protocol: Data were fitted to the model described by Scheme 1. The measured fractional response is then given by {[AB + (2ABB)]/Ai} where Ai is the notional concentration of TTR on the surface. Rate parameters were determined from the global fitting of the association data to the binding equilibria as defined by Scheme 1. […]
Surface Plasm on Resonance. Human wild type TTR isolated from serum (Scipac) was biotinylated according to the method of Alhamadsheh et al . 3 using EZ -link sulfo NHS -LC biotin (Thermoscientific) and immobilised in […]
phosphate buffered saline (PBS), 0.05% Tween20 to achieve 3000-4000 response units of biotinylated TTR bound to the SA-chip surface following the manufacturer’s instructions. To block unoccupied sites, biocytin (50 µM) was flowed across the chip (at a flow rate of 50 µl/min, for 1 min). Finally, the chip was washed with Hepes Buffer Saline, pH 7. 4 (+ 0. 05 % Tween20) running buffer until the SPR signal reached a stable background level.
For all procedures, the running buffer was used at a flow rate of […]. The immobilised TTR surface was […]
30 µl/min) and then running buffer alone to monitor the dissociation phase. Between injections sufficient time

[5] = SPR, ± standard deviation, listed as Tafamidis

SMILES: C[Si](C)(C)CCCS(=O)(=O)O [DSS, 4,4-dimethyl-4-silapentane-1-sulfonic acid]
binding to the TTR HBP [1]: binds

SMILES: O=C(O)c1ccccc1Nc1cc(Cl)c(OCCCCCCCOc2c(Cl)cc(Nc3ccccc3C(=O)O)cc2Cl)c(Cl)c1 [mds84]
nature of binding by TTR [2]: pseudo-irreversible
protection against the proteolytic cleavage of the peptide bond 48–49 [3]: highest protection

k3 (on-rate, second binding site) ([4]; SPR global fit, Scheme 1, ± standard deviation): (3.5 ± 1.0) × 10^6 M^–1 s^–1
k1 (on-rate, first binding site) ([4]; SPR global fit, Scheme 1, ± standard deviation, three independent experiments): (4.5 ± 2.2) × 10^6 M^–1 s^–1
difference in the observed affinities at the two sites ([4]; SPR, Kd2 vs Kd1): 7 fold
k2 (off-rate, first binding site) ([4]; SPR, ± standard deviation): 0.008 s^–1
k4 (off-rate, second binding site) ([4]; SPR, ± standard deviation): 0.06 s^–1
k2 (off-rate, first binding site) [4, 5]: (0.008 ± 0.001) s^–1
k4 (off-rate, second binding site) [4, 5]: (0.060 ± 0.006) s^–1
k2 (off-rate measured by SPR) ([4]; first site, Figure 7 legend): 0.008 Hz
k4 (off-rate measured by SPR) ([4]; second site, Figure 7 legend): 0.06 Hz
SMILES: O=C(O)c1ccc2nc(-c3cc(Cl)cc(Cl)c3)oc2c1 [tafamidis]
